Data reported in US20190085289A1, “COMPOSITIONS AND METHODS FOR PATHOGEN INACTIVATION OF PLATELETS” (Cerus Corporation, priority 2017, published 2019).

Tests used:
[1] = Stability of S-59 in InterSol PAS protected from ambient light (HPLC); type: physicochemical; conditions: for S-59 UV peak area (HPLC) / S-59 concentration (HPLC): 230 μM in InterSol PAS, room temp, protected from light
Method: Additional studies evaluated stability of the S-59 (amotosalen) pathogen inactivation compound formulated in a platelet additive solution (PAS), but protected from ambient light exposure. A 230 μM solution of S-59 was prepared in the commercially available PAS solution InterSol® (Fenwal Inc.) and maintained at room temperature protected from ambient light conditions. HPLC analysis was performed on samples at times listed in Table 2 for both S-59 and photoproducts.

[2] = Stability and photoconversion of S-59 in 65% PAS/35% plasma with platelets (HPLC); type: physicochemical; conditions: for S-59 UV peak area (HPLC) / S-59 concentration (HPLC): 150 μM in 65% InterSol PAS/35% plasma with platelets
Method: A further study evaluated stability and photoconversion of amotosalen (S-59) in PAS with added plasma, and also containing platelets. S-59 was added at a concentration of 150 μM to 65% InterSol® PAS and 35% plasma a suspended preparation of platelets, and the admixture maintained in a platelet incubator during the study time course. Samples were removed for HPLC analysis at times 0, 5, 21, 29 and 48 hours, and the mixture was then treated with ˜3 J of UVA light at 55 hours with a post-UVA sample also analyzed by HPLC for both S-59 and photoproducts. […] Peak D and Peak E photoproducts were not detected (Table 3).

K. pneumoniae = test: Photochemical inactivation of K. pneumoniae in platelets, bacterial titer assay; type: cell-based
Method: Another study evaluated 24 hour stability and photoconversion of amotosalen (S-59) in PAS with plasma and platelets, in the presence of bacteria. Two ABO matched platelet units in 100% plasma were pooled, split into two units and InterSol® PAS added (e.g., 65/35). S-59 was added to the test unit at a concentration of 150 but not initially to the control unit. A log culture of K. pneumoniae (˜8 log cfu/mL) was added to the units at a target of ˜60 CFU/unit and the units were incubated in a platelets shaker at 22° C. for approximately 24 hours. At the end of incubation, S-59 was also added to the control unit at the same concentration and both control and test units were subjected to UVA light. Samples were taken pre- and post-UVA illumination for both units bacterial titer assay and HPLC. Post-illumination both units were subjected to a CAD processing step to remove residual amotosalen and photoproducts and stored on a platelet shaker for 7 days to confirm no growth of bacteria. Photochemical inactivation of K. pneumoniae was also measured post-UVA exposure, with the titer (log cfu/mL) results shown in the following table.

[3] = Post-UVA residual S-59 concentration in FCV-spiked platelets (HPLC); type: physicochemical; conditions: for Post-UVA S-59 concentration: UVA ~3 J/cm^2
Method: An additional study was performed to evaluate the level of FCV inactivation with decreasing amounts of S-59 after extended incubation (e.g., pre-incubation) in PAS/Plasma. In this study, platelets in PAS/Plasma (65%/35%) were spiked with a stock of FCV at a 1:100 dilution. The FCV-spiked platelets were then split into 16 separate test units. Each unit was dosed with S-59 at approximately 150 μM, 90 μM, 30 μM or 15 μM concentration. Following the addition of S-59 in one of four dosing groups, the platelet units in each dosing group were incubated for 0, 4, 8 or 24 hr prior to illumination. A control sample was taken from each unit for virus titer determination and HPLC analysis of S-59 concentration pre-UVA treatment, followed by UVA light exposure at ˜3 J/cm^2 for photochemical treatment of the test samples. Following UVA treatment, the control and test samples were evaluated for inactivation of FCV using a standard virological plaque assay.
HPLC analysis also was performed to determine the amount (e.g., concentration) of S-59 remaining in samples after UVA illumination and photoconversion (Table 10).

[4] = system: Caliciviruses, such as feline calicivirus (FCV); conditions: photochemical inactivation, Irsch et al. 2011; cited from earlier work
[5] = Control unit (S-59 added after ~24 h incubation, then UVA), Replicate 1
[6] = Control unit (S-59 added after ~24 h incubation, then UVA), Replicate 2
[7] = Test unit (S-59 150 present during ~24 h incubation, then UVA), Replicate 1
[8] = Test unit (S-59 150 present during ~24 h incubation, then UVA), Replicate 2

SMILES: Cc1oc2c(C)c3oc(=O)cc(C)c3cc2c1COCCN [S-59, 3-(2-aminoethoxymethyl)-2,5,9-trimethylfuro[3,2-g]chromen-7-one]
- S-59 UV peak area (HPLC) ([1]; 5.5 hr): 3451.6489
- S-59 concentration (HPLC) ([1]; 5.5 hr): 232.74 µM
- S-59 UV peak area (HPLC) ([1]; 21.5 hr): 3439.4907
- S-59 concentration (HPLC) ([1]; 21.5 hr): 231.93 µM
- S-59 UV peak area (HPLC) ([1]; 28.5 hr): 3421.447
- S-59 concentration (HPLC) ([1]; 28.5 hr): 230.72 µM
- S-59 UV peak area (HPLC) ([1]; 44 hr): 3425.1028
- S-59 concentration (HPLC) ([1]; 44 hr): 230.96 µM
- S-59 UV peak area (HPLC) ([1]; 45.5 hr): 3399.0142
- S-59 concentration (HPLC) ([1]; 45.5 hr): 229.22 µM
- S-59 UV peak area (HPLC) ([1]; 53 hr): 3421.4934
- S-59 concentration (HPLC) ([1]; 53 hr): 230.72 µM
- S-59 UV peak area (HPLC) ([1]; 77 hr): 3446.6414
- S-59 concentration (HPLC) ([1]; 77 hr): 232.41 µM
- S-59 UV peak area (HPLC) ([1]; T 0): 3393.0647
- S-59 concentration (HPLC) ([1]; T 0): 228.82 µM
- loss of S-59 ([1]; InterSol PAS, protected from ambient light, at 77 hours): no loss
- S-59 UV peak area (HPLC) ([2]; platelet incubator, 5 hr): 1738.331
- S-59 concentration (HPLC) ([2]; platelet incubator, 5 hr): 149.30 µM
- S-59 UV peak area (HPLC) ([2]; platelet incubator, 21 hr): 1739.214
- S-59 concentration (HPLC) ([2]; platelet incubator, 21 hr): 147.81 µM
- S-59 UV peak area (HPLC) ([2]; platelet incubator, 29 hr): 1725.882
- S-59 concentration (HPLC) ([2]; platelet incubator, 29 hr): 148.04 µM
- S-59 UV peak area (HPLC) ([2]; platelet incubator, 48 hr): 1750.513
- S-59 concentration (HPLC) ([2]; platelet incubator, 48 hr): 148.06 µM
- S-59 UV peak area (HPLC) ([2]; platelet incubator, T 0): 1752.513
- S-59 concentration (HPLC) ([2]; platelet incubator, T 0): 148.12 µM
- S-59 UV peak area (HPLC) ([2]; 55 hr post-UVA (~3 J UVA)): 274.897
- S-59 concentration (HPLC) ([2]; 55 hr post-UVA (~3 J UVA)): 22.71 µM
- S-59 remaining in the post-UVA samples ([2]; 150 μM, 55 hour incubation in PAS/plasma with platelets, then ~3 J UVA): 15.3%
- loss of S-59 ([2]; PAS/plasma/platelets admixture, prior to the UVA treatment at 55 hours): no loss
- K. pneumoniae Log Reduction (K. pneumoniae; [5]): >7.3 Log
- K. pneumoniae Titer Post-UVA (K. pneumoniae; [5]): <−0.7 log cfu/mL
- K. pneumoniae Log Reduction (K. pneumoniae; [6]): >6.3 Log
- K. pneumoniae Titer Post-UVA (K. pneumoniae; [6]): <−0.7 log cfu/mL
- K. pneumoniae Log Reduction (K. pneumoniae; [7]): >7.3 Log
- K. pneumoniae Titer Post-UVA (K. pneumoniae; [7]): <−0.7 log cfu/mL
- K. pneumoniae Log Reduction (K. pneumoniae; [8]): >6.2 Log
- K. pneumoniae Titer Post-UVA (K. pneumoniae; [8]): <−0.7 log cfu/mL
- photochemical inactivation of K. pneumoniae (K. pneumoniae; post-UVA, both the control and test units): High level inactivation
- Post-UVA S-59 concentration ([3]; Input S-59 15 μM, pre-incubation 0 hr): 3 µM
- Post-UVA S-59 concentration ([3]; Input S-59 15 μM, pre-incubation 4 hr): 2 µM
- Post-UVA S-59 concentration ([3]; Input S-59 15 μM, pre-incubation 8 hr): 2 µM
- Post-UVA S-59 concentration ([3]; Input S-59 15 μM, pre-incubation 24 hr): 2 µM
- Post-UVA S-59 concentration ([3]; Input S-59 30 μM, pre-incubation 0 hr): 5 µM
- Post-UVA S-59 concentration ([3]; Input S-59 30 μM, pre-incubation 4 hr): 2 µM
- Post-UVA S-59 concentration ([3]; Input S-59 30 μM, pre-incubation 8 hr): 2 µM
- Post-UVA S-59 concentration ([3]; Input S-59 30 μM, pre-incubation 24 hr): 3 µM
- Post-UVA S-59 concentration ([3]; Input S-59 90 μM, pre-incubation 0 hr): 14 µM
- Post-UVA S-59 concentration ([3]; Input S-59 90 μM, pre-incubation 4 hr): 10 µM
- Post-UVA S-59 concentration ([3]; Input S-59 90 μM, pre-incubation 8 hr): 11 µM
- Post-UVA S-59 concentration ([3]; Input S-59 90 μM, pre-incubation 24 hr): 9 µM
- Post-UVA S-59 concentration ([3]; Input S-59 150 μM, pre-incubation 0 hr): 29 µM
- Post-UVA S-59 concentration ([3]; Input S-59 150 μM, pre-incubation 4 hr): 33 µM
- Post-UVA S-59 concentration ([3]; Input S-59 150 μM, pre-incubation 8 hr): 22 µM
- Post-UVA S-59 concentration ([3]; Input S-59 150 μM, pre-incubation 24 hr): 19 µM
- residual S-59 concentration post-treatment ([3]; S-59 dosing groups with pre-incubation, levels reached): less than 5 μM
- residual S-59 concentration ([3]; conditions giving high levels of inactivation (e.g., >4 logs)): 2 µM
- log10 reduction in titer [4]: 1.7-2.4 log10
